The test system of one test is Pyrenophora teres. Description: Pyrenophora teres test (barley)/protective. Conditions: 62.5 g/ha; evaluation 10 days after inoculation. The class given is in vivo, Pyrenophora teres on barley. The protocol: Pyrenophora teres Test (Barley)/Protective • Solvent: 50 parts by weight of N,N-dimethylacetamide • Emulsifier: 1 part by weight of alkylaryl polyglycol ether To produce a suitable preparation of active compound, 1 part by weight of active compound or active compound combination is mixed with the stated amounts of solvent and emulsifier, and the concentrate is diluted with water to the desired concentration, or a commercial formulation of active compound or active compound combination is diluted with water to the desired concentration. To test for protective activity, young plants are sprayed with the active compound preparation at the stated application rate. After the spray coating has dried on, the plants are sprayed with a conidia suspension of Pyrenophora teres. The plants remain in an incubation cabin at 20° C. and 100% relative atmospheric humidity for 48 hours. The plants are then placed in a greenhouse at a temperature of about 20° C. and a relative atmospheric humidity of about 80%. Evaluation is carried out 10 days after the inoculation. Here, 0% means an efficacy which corresponds to that of the control, whereas an efficacy of 100% means that no infection is observed.

A further test has as its system Rhizoctonia solani. Description: Rhizoctonia solani test (in vitro)/microtitre plates. Conditions: 120 h, application rate 0.1 ppm, 5 days incubation, PDB medium, read-out: % efficacy. In kind it is cell-based. As to the method: Rhizoctonia solani Test (In Vitro)/Microtitre Plates The microtest is carried out in microtitre plates using Potato Dextrose Broth (PDB) as liquid test medium. The active compounds are used as technical-grade a.i., dissolved in methanol. For inoculation, a mycelium suspension of Rhizoctonia solani is used. After 5 days of incubation in the dark and with shaking (10 Hz), the transparency of each filled cavity of the microtitre plates is determined with the aid of a spectrophotometer. Here, 0% means an efficacy which corresponds to the growth in the controls, whereas an efficacy of 100% means that no fungal growth is observed.

The subject of another test is Leptosphaeria nodorum. Put plainly: Leptosphaeria nodorum test (wheat)/protective. The class given is in vivo, Leptosphaeria nodorum on wheat. Conditions: evaluation 10 days after inoculation. The protocol: Leptosphaeria nodorum Test (Wheat)/Protective • Solvent: 50 parts by weight of N,N-dimethylacetamide • Emulsifier: 1 part by weight of alkylaryl polyglycol ether To produce a suitable preparation of active compound, 1 part by weight of active compound is mixed with the stated amounts of solvent and emulsifier, and the concentrate is diluted with water to the desired concentration. To test for protective activity, young plants are sprayed with the active compound preparation at the stated application rate. After the spray coating has dried on, the plants are sprayed with a spore suspension of Leptosphaeria nodorum. The plants remain in an incubation cabin at 20° C. and 100% relative atmospheric humidity for 48 hours. The plants are placed in a greenhouse at a temperature of about 20° C. and a relative atmospheric humidity of 80%. Evaluation is carried out 10 days after the inoculation. Here, 0% means an efficacy which corresponds to that of the control, whereas an efficacy of 100% means that no infection is observed.

With `OC(Cc1ccccc1Cl)(Cn1nc[nH]c1=S)C1(Cl)CC1` (stereo not shown) [(II) Prothioconazole, prothioconazole], the “Efficacy in % found” value with Pyrenophora teres came to 44%.

As for `CC(C)(C)C(O)(CCc1ccc(Cl)cc1)Cn1cncn1` (racemic) [Tebuconazole, (RS)-1-p-chlorophenyl-4,4-dimethyl-3-(1H-1,2,4-triazol-1-ylmethyl)-pentan-3-ol], the Emax at 0.1 ppm in the test with Rhizoctonia solani was determined as 13%. In the test with Leptosphaeria nodorum (62.5 g/ha), the “Efficacy in % found” value came out at 56%. For the compound `Cc1nn(C)c(F)c1C(=O)Nc1ccccc1C(C)CC(C)C` (stereo not shown) [(I), N-[2-(1,3-Dimethylbutyl)phenyl]-5-fluoro-1,3-dimethyl-1H-pyrazole-4-carboxamide], the figures for the “Efficacy in % found” value with Leptosphaeria nodorum (62.5 g/ha) and in the test on Pyrenophora teres were 0% and 67%, respectively. As for `COCC(=O)N(c1c(C)cccc1C)C(C)C(=O)OC` (stereo not shown) [(III) Metalaxyl, metalaxyl], the entries for the “Efficacy in % found” value in the test with Leptosphaeria nodorum (125 g/ha) and in the test with Pyrenophora teres were 11% and 0%, respectively.

Values taken from patent US8658564B2, “Fungicide active ingredient combinations” (Bayer Cropscience AG, priority 2007, dated 2014).
